Measured values: ChEMBL document CHEMBL3297647, “Biological evaluation of subglutinol a as a novel immunosuppressive agent for inflammation intervention” (ACS Med Chem Lett, 2014)
Active and inactive are the calls of the source. The calls are words filed in the database; no cut-off is given here.

How the values were obtained:
Th17 [1] = assay: Reduction in mitochondrial mass in LLO118 TCR transgenic mouse Th17 cells at 50 to 100 nM for 2 days by MitoTracker Deep Red FM staining-based flow cytometric analysis; format: functional, cell-based
T-cell [2] = assay: Induction of apoptosis in LLO118 TCR transgenic mouse LLO (190 to 205)-activated CD4-positive T cells assessed as live undivided cells at 100 nM after 48 hrs by CFSE dilution/flow cytometric analysis (reference value: 41.6%); format: functional
BMDC [3] = assay: Reduction in mitochondrial mass in LPS-matured B6 mouse BMDC at 100 nM for 1 day by MitoTracker Deep Red FM staining-based flow cytometric analysis; format: functional
T-cell [4] = assay: Induction of apoptosis in pMel-1 TCR transgenic C57BL/6 mouse gp100 (25 to 33)-activated CD8-positive T cells assessed as live divided cells at 100 nM after 48 hrs by CFSE dilution/flow cytometric analysis (reference value: 55.2%); format: functional
T-cell [5] = assay: Antiinflammatory activity in LLO118 TCR transgenic mouse IL-2-competent CD4-positive T cells assessed as inhibition of LLO (190 to 205)-induced IL-2 production at 100 nM for 2 days by flow cytometric analysis; format: functional, cell-based
[6] = Antiinflammatory activity in LLO118 TCR transgenic mouse IL-2-competent CD4-positive T cells assessed as inhibition of LLO (190 to 205)-induced IL-2 production at 1 nM for 2 days by flow cytometric analysis relative to control; format: functional; conditions: T-cell, 48 h
T-cell [7] = assay: Induction of apoptosis in LLO118 TCR transgenic mouse LLO (190 to 205)-activated CD4-positive T cells assessed as dead undivided cells at 100 nM after 48 hrs by CFSE dilution/flow cytometric analysis (reference value: 14.7%); format: functional
BMDC [8] = assay: Reduction in mitochondrial mass in B6 mouse immature BMDC at 100 nM for 1 day by MitoTracker Deep Red FM staining-based flow cytometric analysis; format: functional
Mus musculus [9] = assay: Immunosuppressive activity in C57BL/6J mouse KLH-induced delayed-type hypersensitivity model assessed as alleviation of footpad swelling at 16 nmol administered on day 7 and 8 post-sensitization measured on day 9; format: functional, organism-based
Th17 [10] = assay: Induction of mitochondrial depolarization in LLO118 TCR transgenic mouse Th17 cells treated for 2 days by MitoTracker Orange CMTMRos staining-based flow cytometric analysis; format: functional, cell-based
Th17 [11] = assay: Antiinflammatory activity in LLO118 TCR transgenic mouse Th17 cells assessed as inhibition of IL-17 production at 10 to 100 nM for 2 days by flow cytometric analysis; format: functional, cell-based
T-cell [12] = assay: Induction of apoptosis in LLO118 TCR transgenic mouse LLO (190 to 205)-activated CD4-positive T cells assessed as dead divided cells at 100 nM after 48 hrs by CFSE dilution/flow cytometric analysis (reference value: 3.04%); format: functional
[13] = Immunosuppressive activity in C57Bl/6 mouse lymphocytes assessed as inhibition of cell proliferation co-incubated with BALB/c mouse stimulator lymphocytes after 72 hrs by [3H]-thymidine incorporation assay; format: functional, cell-based; conditions: C57Bl/6, Lymphocyte
Th1 [14] = assay: Reduction in mitochondrial mass in LLO118 TCR transgenic mouse Th1 cells at 50 to 100 nM for 2 days by MitoTracker Deep Red FM staining-based flow cytometric analysis; format: functional, cell-based
T-cell [15] = assay: Induction of apoptosis in pMel-1 TCR transgenic C57BL/6 mouse gp100 (25 to 33)-activated CD8-positive T cells assessed as live undivided cells at 100 nM after 48 hrs by CFSE dilution/flow cytometric analysis (reference value: 23.4%); format: functional
BMDC [16] = assay: Induction of mitochondrial depolarization in LPS-matured B6 mouse BMDC at 100 nM for 1 day by MitoTracker Orange CMTMRos staining-based flow cytometric analysis; format: functional
BMDC [17] = assay: Induction of mitochondrial depolarization in B6 mouse immature BMDC at 100 nM for 1 day by MitoTracker Orange CMTMRos staining-based flow cytometric analysis; format: functional
Mus musculus [18] = assay: Immunosuppressive activity in C57BL/6J mouse KLH-induced delayed-type hypersensitivity model assessed as blockade of lymphocyte accumulation at 16 nmol administered on day 7 and 8 post-sensitization measured on day 9; format: functional, organism-based
T-cell [19] = assay: Induction of apoptosis in LLO118 TCR transgenic mouse LLO (190 to 205)-activated CD4-positive T cells assessed as live divided cells at 100 nM after 48 hrs by CFSE dilution/flow cytometric analysis (reference value: 40.6%); format: functional
T-cell [20] = assay: Induction of apoptosis in pMel-1 TCR transgenic C57BL/6 mouse gp100 (25 to 33)-activated CD8-positive T cells assessed as dead divided cells at 100 nM after 48 hrs by CFSE dilution/flow cytometric analysis (reference value: 14.7%); format: functional
T-cell [21] = assay: Induction of apoptosis in pMel-1 TCR transgenic C57BL/6 mouse gp100 (25 to 33)-activated CD8-positive T cells assessed as dead undivided cells at 100 nM after 48 hrs by CFSE dilution/flow cytometric analysis (reference value: 6.77%); format: functional
Lymphocyte = assay: Immunosuppressive activity in lymphocytes by MLR assay; format: functional, cell-based
Th1 [22] = assay: Induction of mitochondrial depolarization in LLO118 TCR transgenic mouse Th1 cells treated for 2 days by MitoTracker Orange CMTMRos staining-based flow cytometric analysis; format: functional, cell-based
Mus musculus [23] = assay: Immunosuppressive activity in C57BL/6J mouse KLH-induced delayed-type hypersensitivity model assessed as amelioration of tissue injury at 16 nmol administered on day 7 and 8 post-sensitization measured on day 9; format: functional, organism-based
[24] = Antiinflammatory activity in LLO118 TCR transgenic mouse Th1 cells assessed as inhibition of IFN-gamma production at 10 nM for 2 days by flow cytometric analysis (reference value: 90%); format: functional; set-up: scale not given: the % may be the effect or the level left

| Structure (SMILES) | Activity (T-cell [2]) [%] | Activity (T-cell [4]) [%] | Activity (T-cell [7]) [%] | Activity (T-cell [12]) [%] | IC50 [13] [nM] | Activity (T-cell [15]) [%] | Activity (T-cell [19]) [%] | Activity (T-cell [20]) [%] | Activity (T-cell [21]) [%] | IC50 (Lymphocyte) [nM] | other results |
| --- | --- | --- | --- | --- | --- | --- | --- | --- | --- | --- | --- |
| C=C1CC[C@H]2[C@]3(C)C[C@@H](C=C(C)C)O[C@H]3CC[C@]2(C)[C@@H]1Cc1c(O)c(C)c(C)oc1=O [SUBGLUTINOL A] | 13.4 | 1.04 | 82.6 | 3.29 | 100 | 12.3 | 0.73 | 3.09 | 83.6 | 25 | Activity (Th17 [1]): inactive; Activity (BMDC [3]): inactive; inhibition (T-cell [5]): Active; inhibition at 0.001 µM [6]: 50%; Activity (BMDC [8]): inactive; Activity (Mus musculus [9]): Active; Activity (Th17 [10]): Dose-dependent effect; inhibition (Th17 [11]): Active; Activity (Th1 [14]): Active; Activity (BMDC [16]): inactive; Activity (BMDC [17]): inactive; Activity (Mus musculus [18]): Active; Activity (Th1 [22]): Dose-dependent effect; Activity (Mus musculus [23]): Active; Activity [24]: <1% |
| C/C=C/C[C@@H](C)[C@@H](O)[C@H]1C(=O)N[C@@H](CC)C(=O)N(C)CC(=O)N(C)[C@@H](CC(C)C)C(=O)N[C@@H](C(C)C)C(=O)N(C)[C@@H](CC(C)C)C(=O)N[C@@H](C)C(=O)N[C@H](C)C(=O)N(C)[C@@H](CC(C)C)C(=O)N(C)[C@@H](CC(C)C)C(=O)N(C)[C@@H](C(C)C)C(=O)N1C [CYCLOSPORINE] | 1.94 | 0.68 | 86.1 | 10.9 | – | 2.01 | 1.02 | 10.8 | 86.5 | 89 | – |
| C=C1CC[C@H]2[C@]3(C)C[C@H](C=C(C)C)O[C@H]3CC[C@]2(C)[C@@H]1Cc1c(O)c(C)c(C)oc1=O [SUBGLUTINOL B] | – | – | – | – | 100 | – | – | – | – | – | – |
